Results taken from EPA's ToxValDB 9.5 (doi:10.2903/j.efsa.2017.4695).

How the values were obtained:
Typhlodromus pyri = assay: LR50; higher = less toxic; conditions: acute; mortality
Aphidius rhopalosiphi = assay: LR50; higher = less toxic; conditions: acute; mortality
Bibionidae = conditions: chronic/long-term; duration: 28 days; development
Daphnia magna = conditions: chronic/long-term; duration: 21 days; reproduction
Colinus virginianus = conditions: acute; oral; mortality
Tagia sp. = conditions: chronic/long-term; duration: 8 weeks; reproduction
Folsomia candida = conditions: chronic/long-term; duration: 4 weeks; mortality
Pimephales promelas = conditions: chronic/long-term; reproduction
Rattus norvegicus = conditions: acute; oral; mortality
Oryctolagus sp. = conditions: developmental; development
Lepomis macrochirus = conditions: acute; duration: 96 hours; mortality
Apis mellifera = conditions: acute, mortality

SMILES: COc1cc(OC)nc(NC(=O)NS(=O)(=O)c2c(Cl)nc3ccccn23)n1 [Imazosulfuron]
- LR50 (Typhlodromus pyri): > 50 g/ha
- LR50 (Aphidius rhopalosiphi): > 50 g/ha
- NOEC (Bibionidae): 490 µg/L
- NOEC (Daphnia magna): 0.84 mg/L
- LD50 (Colinus virginianus): > 2250 mg/kg-day
- NOEC (Tagia sp.): 500 mg/kg
- LD50 (Anas platyrhynchos; acute, oral, unspecified, mortality): > 2250 mg/kg-day
- NOAEL (Anas platyrhynchos; reproductive, other): 15.9 mg/kg-day
- NOEC (Folsomia candida): 1000 mg/kg
- NOEC (Pimephales promelas): 2.9 mg/L
- LD50 (Rattus norvegicus): > 1000 mg/kg-day
- NOAEL (Oryctolagus sp.): 50 mg/kg-day
- LC50 (Lepomis macrochirus): > 74 mg/L
- LD50 (Apis mellifera; dermal): > 100 µg/piece
- LD50 (Apis mellifera; oral, unspecified): > 41.6 µg/piece
